Values of other authors in US5714511A, “Selective prevention of organ injury in sepsis and shock using selection release of nitric oxide in vulnerable organs” (The United States of America as represented by the …, priority 1995, dated 1998).

How the values were obtained:
[1] = system: hemorrhagic shock in rats

Row | Compound | inhibition of DNA synthesis (DNA synthesis) | protective effect in hemorrhagic shock [1] | solubility in aqueous media
1 | CC(=O)N[C@H](C(=O)O)C(C)(C)SN=O [SNAP, S-nitroso-N-acetyl-penicillamine] | effective at inhibiting DNA synthesis | significant protective effects of SNAP in hemorrhagic shock in rats | 
2 | Nitric oxide |  |  | limited solubility in aqueous media
